# Experimental data published in patent US11161888B2, “Method for regulating targeting of Cyclin Y (CCNY) protein to synapses” (KOREA INSTITUTE OF SCIENCE AND TECHNOLOGY, priority 2018, dated 2021).
# Entries after “also recorded” stand apart in the source; their conditions may differ.
# Legend:
# [1] = test system: hippocampal neurons overexpressing CCNY-WT-EGFP; assay: Confocal imaging of CCNY-WT-EGFP membrane association in neurons treated with palmitoylation blocker; type: cell-based, rat; conditions: 2-bromopalmitate 100 μM, 4 hours, hippocampal neurons (FIG. 1D)
# Method: Specifically, (A) is a confocal single-plane image of hippocampal neurons overexpressing EGFP-tagged CCNY-WT. […] The scale bars are 20 μm (top) and 5 μm (bottom). […] The scale bar is 20 μm.
# HEK 293T cells were grown in DMEM (Gibco) supplemented with 10% fetal bovine serum. Hippocampal neuronal cultures were prepared from E18 Sprague-Dawley (SD) rat embryos. The hippocampal neurons were grown on poly-D-lysine ([…]; Sigma)-coated 18 mm glass coverslips and maintained for 10 to 21 days in vitro (DIV) in 12-well plates containing B27 and Glutamax-supplemented Neurobasal medium (Gibco) at 37° C. in an incubator equilibrated with 5% CO2 (Cho et al., 2015). The culture contains glial cells that were grown up to 70% to 80% confluency, where further growth was inhibited by treatment of 5-fluoro-2′-deoxyuridine (FUdR) ([…]; Sigma).
# Neurons were transfected at 10 to 15 DIV using Lipofectamine 2000 (Invitrogen) for 1 to 6 days, and then experiments were performed at 14 to 17 DIV. All experiments handling animals and their embryos were performed in accordance with the guidelines and regulations of the Korea Institute of Science and Technology (KIST). All experimental protocols were approved by the KIST Institutional Animal Care and Use Committee (IACUC; approval number 2018-048). […]
# CCNY = assay: Acyl-biotinyl exchange (ABE) assay of CCNY palmitoylation in HEK293T cells; type: cell-based; conditions: 4 hours prior to ABE assay, HEK293T cells (FIG. 3B)
# Method: (§1) All images are single-plane images. […] The scale bars are 5 (B and C) show the results of an acyl-biotinyl exchange (ABE) assay. CCNY-WT-EGFP or CCNY-Mut(C7, 8S)-EGFP were overexpressed in HEK293T cells, and the cells were subsequently treated with a palmitoylation blocker, 2-bromopalmitate (2-BP, 30 μM or 100 μM), for 4 hours prior to the ABE assay.
# (§2) The ABE assay was performed as previously described (Wan et al., 2007) with minor modifications. Briefly, HEK293T cells were transfected with CCNY-WT-EGFP, CCNY-Mut(C7,8S)-EGFP, or PSD-95-WT-EGFP. PSD-95-WT-EGFP was transfected with or without DHHC2-HA. Twenty four hours after transfection, the cells were lysed in lysis buffer (150 mM NaCl, 50 mM Tris, 5 mM EDTA, protease inhibitor cocktail, 1 mM PMSF, pH 7.4) with 1.7% Triton X-100 and 10 mM N-ethylmaleimide (NEM) for 1 hour at 4° C. The cell lysates were centrifuged at 250 g for 5 minutes at 4° C., and the resultant supernatants were applied to the chloroform-methanol (CM) precipitation methodology. […] The eluted samples in loading buffer (50 mM Tris-HCl, pH 6.8, 5% β-mercaptoethanol, 2% SDS, 0.01% bromophenol blue) were then boiled for 10 minutes at 95° C., applied to SDS-PAGE, and analyzed by immunoreactions with anti-CCNY (Proteintech Group), anti-PSD-95 (Thermo Scientific) and anti-GFP (Roche). […]
# PSD-95 = assay: Acyl-biotinyl exchange (ABE) assay of PSD-95 palmitoylation (positive control) in HEK293T cells; type: cell-based; conditions: in the presence of 2-bromopalmitate, HEK293T cells (FIG. 3C)
# Method: as §1, §2
structure (smiles),measurement,setting,value
CCCCCCCCCCCCCCC(Br)C(=O)O (stereo not shown) [2-bromopalmitate],membrane-associated localization of CCNY-WT-EGFP on the neuronal cell surface,[1],altered
same,palmitoylation of CCNY-WT-EGFP (ABE assay),CCNY; 2-bromopalmitate 30 μM,no palmitoylation was detected; also recorded: blocked
same,palmitoylation of CCNY-WT-EGFP (ABE assay),CCNY; 2-bromopalmitate 100 μM,no palmitoylation was detected; also recorded: blocked
same,palmitoylation of PSD-95 (ABE assay),PSD-95,inhibited
